Measured values published in patent US10098827B2 (L'OREAL, priority 2014, dated 2018).

Biological target: T1, human leukocyte elastase (HLE) (Homo sapiens, UniProt P08246)
T1 construct: CEREP (contract assay)
T1 sequence (P08246 30-267): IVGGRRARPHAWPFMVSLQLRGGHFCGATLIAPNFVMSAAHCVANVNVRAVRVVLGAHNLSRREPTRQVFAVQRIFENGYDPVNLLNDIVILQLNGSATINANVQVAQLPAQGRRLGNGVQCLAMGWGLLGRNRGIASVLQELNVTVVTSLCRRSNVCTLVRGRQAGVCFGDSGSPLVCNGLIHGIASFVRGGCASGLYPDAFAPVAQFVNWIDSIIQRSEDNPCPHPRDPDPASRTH
Assay: Human Elastase Assay test (CEREP catalog), photometry
Format: biochemical
Conditions: for inhibition at 1000 µM: compound at 1 mM, reference substrate MeOSAAPV-pNa at 0.1 mM, photometry, read-out: Elastase inhibition activity (conc 1 mM); for IC50: human elastase, read-out: IC50 (concentration that produces 50% inhibition of the human elastase activity)
Experimental: The molecules have been evaluated in vitro on a Human Elastase Assay test, available in the CEREP catalog.
The results are expressed as a percentage of activity versus a specific control (activity measured with compounds of the invention/control activity without the compound of the invention)×100.
The control is the enzymatic activity of human leukocyte elastase (HLE) on a reference substrate (MeOSAAPV-pNa at 0.1 mM).
The detection method used is photometry.
This method is described in the literature: Adeyemi et al 1990, J. Pharm. Pharmacol. 42, 487-490.
The concentration that produces 50% inhibition of the human elastase activity (IC50) was measured.

SMILES | inhibition at 1000 µM | effectiveness for inhibiting elastase activity compared with the compound of the prior art (comparison in words) | IC50
CC(=O)N(c1ccc(C(=O)O)c(O)c1)[C@H](C(=O)NCC(=O)O)C(C)C [Compound 1, N-ACETYL-N-(4-CARBOXY-3-HYDROXYPHENYL)VALYLGLYCINE] | 98% |  | 
CC(=O)N(c1ccc(C(=O)O)c(C(=O)O)c1)[C@H](C(=O)NCC(=O)O)C(C)C [Compound 2, N-ACETYL-N-(3,4-DICARBOXYPHENYL)VALYLGLYCINE] | 98% |  | 
CC(=O)N(c1cc(C(=O)O)cc(C(=O)O)c1)[C@H](C(=O)NCC(=O)O)C(C)C [Compound 3, N-ACETYL-N-(3,5-DICARBOXYPHENYL)VALYLGLYCINE] | 98% |  | 
CC(=O)N(c1cccc(C#N)c1)C(C(=O)NCC(=O)O)C(C)C (centres unmarked) [Compound 4] | 35% | clearly more effective than the compound of the prior art | 5.6 mM
CCOC(=O)c1cc(N(C(C)=O)[C@H](C(=O)NCC(=O)O)C(C)C)ccc1O [Compound 5, N-ACETYL-N-[3-(ETHOXYCARBONYL)-4-HYDROXYPHENYL]VALYLGLYCINE] | 62% |  | 
COC(=O)c1cc(C(=O)OC)cc(N(C(C)=O)C(C(=O)NCC(=O)O)C(C)C)c1 (centres unmarked) [Compound 6, N-ACETYL-N-[3,5-BIS(METHOXYCARBOXY)PHENYL]VALYLGLYCINE] | 65% |  | 
CC(=O)N(c1cccc(O)c1)[C@H](C(=O)NCC(=O)O)C(C)C [Compound 7, N-ACETYL-N-(3-HYDROXYPHENYL)VALYLGLYCINE] | 62% |  | 
CC(=O)N(c1ccc(C(=O)O)cc1)C(C(=O)NCC(=O)O)C(C)C (centres unmarked) [Compound 8] | 88% |  | 
CC(=O)N(c1cccc(C(F)(F)F)c1)C(C(=O)NCC(=O)O)C(C)C (centres unmarked) [Z, reference compound] |  |  | 6.38 mM
